What is called IC50 is the point on the concentration scale where inhibition reaches its midpoint. The EC50 is the concentration that produces a half-maximal response. As usually defined, the AC50 is the concentration giving half of the maximal activity seen.

The values that follow come from ChEMBL document CHEMBL1201862, “PubChem BioAssay data set” (2004).

Data set [1] deals with DNA dC->dU-editing enzyme APOBEC-3A (Homo sapiens, UniProt P31941). As to the kind of experiment: Dose Response confirmation of small molecule APOBEC3A DNA Deaminase Inhibitors via a fluorescence-based single-stranded DNA deaminase assay. [Related pubchem assays (depositor defined):AID493011, AID493024]. Type of data set: functional.
Sequence of DNA dC->dU-editing enzyme APOBEC-3A (P31941 whole entry): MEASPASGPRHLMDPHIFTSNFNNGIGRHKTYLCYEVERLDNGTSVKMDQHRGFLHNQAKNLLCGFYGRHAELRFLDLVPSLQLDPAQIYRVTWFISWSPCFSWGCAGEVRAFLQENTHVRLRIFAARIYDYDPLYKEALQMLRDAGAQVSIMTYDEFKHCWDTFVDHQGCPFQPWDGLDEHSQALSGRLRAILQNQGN
Data set [2] addresses DNA dC->dU-editing enzyme APOBEC-3G (Homo sapiens, UniProt Q9HC16). The data set is classed as functional.
Data set [3] is described as follows: microbe, parasite or virus in culture. Type of data set: functional. As to conditions: Mycobacterium tuberculosis.
Data set [4] in a line: viability loss in THP-1 monocytes – THP-1 cells, cytotoxicity control for Vif-APOBEC3G degradation inhibitor project, dose response (AID 1117359). Type of data set: functional. As to conditions: THP-1.
Data set [5] in a line: Trypanosoma cruzi growth suppression in host cells – NIH3T3 host cells, beta-gal luminescence, confirmation (AID 2044).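 Also: intracellular parasites grown in NIH/3T3 mouse fibroblasts as host cells; luminescent beta-galactosidase reporter signal from transgenic T. cruzi replicating inside host cells; inhibitors lower the luminescence signal.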 The data set is classed as functional, cell-based.
The nature of data set [6]: NIH3T3 cell viability loss – ATP luminescence, mouse fibroblasts, counter-screen, dose response (AID 2010).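 Also: cells exposed to compound for about 90 hours before reading.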 Type of data set: functional, cell-based. For orientation: A counterscreen serves to expose hits that act by an unwanted route or on another target.
Another data set has as its target T1, Cytochrome P450 1A2 (Homo sapiens, UniProt P05177).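 Also: PubChem cytochrome P450 panel assay, CYP1A2 panel member.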
T1 sequence (P05177 whole entry): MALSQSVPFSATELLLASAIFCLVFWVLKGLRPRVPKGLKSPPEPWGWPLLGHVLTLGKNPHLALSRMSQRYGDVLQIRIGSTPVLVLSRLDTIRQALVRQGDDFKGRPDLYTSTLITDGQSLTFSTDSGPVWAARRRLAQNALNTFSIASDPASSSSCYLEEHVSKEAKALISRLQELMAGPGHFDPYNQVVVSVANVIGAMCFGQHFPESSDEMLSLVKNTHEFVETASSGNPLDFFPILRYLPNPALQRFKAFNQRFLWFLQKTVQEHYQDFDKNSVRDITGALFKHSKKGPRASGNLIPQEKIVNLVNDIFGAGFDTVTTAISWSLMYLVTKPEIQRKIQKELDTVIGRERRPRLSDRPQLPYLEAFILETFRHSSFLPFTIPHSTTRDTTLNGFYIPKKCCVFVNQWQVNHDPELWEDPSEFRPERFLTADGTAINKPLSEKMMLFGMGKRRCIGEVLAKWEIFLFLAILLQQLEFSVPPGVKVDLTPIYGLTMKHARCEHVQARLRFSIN

The target of another data set is Cytochrome P450 2C9 (Homo sapiens, UniProt P11712).
Sequence of Cytochrome P450 2C9 (P11712 whole entry): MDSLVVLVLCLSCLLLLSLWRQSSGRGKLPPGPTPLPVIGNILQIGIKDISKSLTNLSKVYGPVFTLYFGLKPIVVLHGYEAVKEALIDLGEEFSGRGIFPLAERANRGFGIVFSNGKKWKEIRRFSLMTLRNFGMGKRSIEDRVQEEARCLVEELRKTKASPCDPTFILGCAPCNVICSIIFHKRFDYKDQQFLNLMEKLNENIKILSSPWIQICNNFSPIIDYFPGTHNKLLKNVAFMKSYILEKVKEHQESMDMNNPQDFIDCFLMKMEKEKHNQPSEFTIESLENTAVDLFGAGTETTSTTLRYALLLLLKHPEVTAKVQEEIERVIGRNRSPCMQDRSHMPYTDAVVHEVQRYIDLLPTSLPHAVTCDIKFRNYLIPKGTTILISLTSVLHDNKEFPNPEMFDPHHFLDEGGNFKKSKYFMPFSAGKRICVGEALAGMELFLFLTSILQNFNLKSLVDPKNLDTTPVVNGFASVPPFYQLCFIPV
The next data set relates to BJ. As to the kind of experiment: cells. The data set is classed as functional, cell-based. As to conditions: Homo sapiens.
Data set [7] can be described thus: HEK-293T viability loss after treatment – luminescence, T-cell screen hits, cytotoxicity control for TCR NF-kB inhibitor project, dose response (AID 489026).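 Also: cells exposed to compound about 14 hours before the viability readout.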 Type of data set: functional, cell-based.
The next data set concerns the target Cytochrome P450 2C19 (Homo sapiens, UniProt P33261). As to the kind of experiment: Cytochrome panel assay with activity outcomes. Panel member name: p450-cyp2c19 Compounds with AC50 equal or less than 10 uM are considered active. Type of data set: functional. As to conditions: read-out: AC50.
Another data set has as its target T2, Aminopeptidase N (Plasmodium falciparum FcB1/Columbia, UniProt O96935).
T2 sequence (O96935 whole entry): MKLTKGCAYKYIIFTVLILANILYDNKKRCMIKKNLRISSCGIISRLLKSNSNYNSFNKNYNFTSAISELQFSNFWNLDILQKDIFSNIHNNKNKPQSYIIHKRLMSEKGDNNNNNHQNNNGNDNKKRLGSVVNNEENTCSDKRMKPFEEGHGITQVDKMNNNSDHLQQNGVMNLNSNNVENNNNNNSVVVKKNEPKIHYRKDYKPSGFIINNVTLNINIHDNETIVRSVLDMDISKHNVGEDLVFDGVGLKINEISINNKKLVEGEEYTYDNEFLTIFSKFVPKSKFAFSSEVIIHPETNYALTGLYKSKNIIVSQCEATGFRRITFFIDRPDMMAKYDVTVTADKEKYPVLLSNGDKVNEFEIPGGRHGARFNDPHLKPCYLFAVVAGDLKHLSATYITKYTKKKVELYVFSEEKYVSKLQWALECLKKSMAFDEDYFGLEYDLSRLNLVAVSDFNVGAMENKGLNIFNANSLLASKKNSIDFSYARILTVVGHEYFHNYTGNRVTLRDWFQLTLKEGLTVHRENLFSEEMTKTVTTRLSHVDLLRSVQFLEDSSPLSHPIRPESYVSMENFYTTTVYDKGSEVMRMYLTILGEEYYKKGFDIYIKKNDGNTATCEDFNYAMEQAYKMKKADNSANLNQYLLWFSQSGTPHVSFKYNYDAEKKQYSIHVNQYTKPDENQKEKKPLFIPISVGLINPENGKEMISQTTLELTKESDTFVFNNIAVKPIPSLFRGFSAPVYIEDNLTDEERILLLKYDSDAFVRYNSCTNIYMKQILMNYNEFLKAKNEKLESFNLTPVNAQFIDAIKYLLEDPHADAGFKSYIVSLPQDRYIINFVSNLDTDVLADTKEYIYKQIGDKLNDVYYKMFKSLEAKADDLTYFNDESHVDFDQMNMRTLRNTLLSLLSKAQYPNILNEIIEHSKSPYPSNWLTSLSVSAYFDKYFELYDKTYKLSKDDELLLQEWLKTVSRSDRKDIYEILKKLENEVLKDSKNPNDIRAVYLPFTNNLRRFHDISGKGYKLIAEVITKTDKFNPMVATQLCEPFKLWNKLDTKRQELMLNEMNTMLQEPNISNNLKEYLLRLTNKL
As to the kind of experiment: malaria alanyl aminopeptidase activity blockers – biochemical, fluorogenic H-Leu-NHMec substrate, 1536-well (AID 1445). Also on record: species or system Plasmodium falciparum 3D7, 3D7.

The target in data set [8] is T3, Carboxy-terminal domain RNA polymerase II polypeptide A small phosphatase 1 (Homo sapiens, UniProt Q9GZU7).
T3 sequence (Q9GZU7 whole entry): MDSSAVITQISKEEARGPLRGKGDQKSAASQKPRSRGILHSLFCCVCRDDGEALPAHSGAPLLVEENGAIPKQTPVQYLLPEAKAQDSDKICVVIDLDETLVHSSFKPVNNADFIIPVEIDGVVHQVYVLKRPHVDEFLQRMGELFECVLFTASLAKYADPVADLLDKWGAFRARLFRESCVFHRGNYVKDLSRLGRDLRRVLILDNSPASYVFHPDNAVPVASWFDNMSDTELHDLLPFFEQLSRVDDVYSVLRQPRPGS
As to the kind of experiment: CTDSP1 inhibitors, concentration-response, biochemical, absorbance readout, ultra-high-throughput screen actives (AID 540297). The data set is classed as functional.

Active and inactive are the calls of the source. Where only a bound is given, the exact number is not on record here.

Sequence of DNA dC->dU-editing enzyme APOBEC-3G (Q9HC16 whole entry): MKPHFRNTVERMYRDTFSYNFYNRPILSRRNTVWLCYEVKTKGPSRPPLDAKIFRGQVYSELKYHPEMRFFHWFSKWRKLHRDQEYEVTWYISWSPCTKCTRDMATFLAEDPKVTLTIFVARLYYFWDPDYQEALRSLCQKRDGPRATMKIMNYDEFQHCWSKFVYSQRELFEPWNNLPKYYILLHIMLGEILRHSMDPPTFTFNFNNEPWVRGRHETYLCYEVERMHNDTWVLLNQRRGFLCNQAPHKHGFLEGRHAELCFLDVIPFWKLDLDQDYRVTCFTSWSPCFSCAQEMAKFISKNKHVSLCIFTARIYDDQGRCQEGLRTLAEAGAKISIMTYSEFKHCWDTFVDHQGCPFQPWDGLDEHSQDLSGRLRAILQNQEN
Sequence of Cytochrome P450 2C19 (P33261 whole entry): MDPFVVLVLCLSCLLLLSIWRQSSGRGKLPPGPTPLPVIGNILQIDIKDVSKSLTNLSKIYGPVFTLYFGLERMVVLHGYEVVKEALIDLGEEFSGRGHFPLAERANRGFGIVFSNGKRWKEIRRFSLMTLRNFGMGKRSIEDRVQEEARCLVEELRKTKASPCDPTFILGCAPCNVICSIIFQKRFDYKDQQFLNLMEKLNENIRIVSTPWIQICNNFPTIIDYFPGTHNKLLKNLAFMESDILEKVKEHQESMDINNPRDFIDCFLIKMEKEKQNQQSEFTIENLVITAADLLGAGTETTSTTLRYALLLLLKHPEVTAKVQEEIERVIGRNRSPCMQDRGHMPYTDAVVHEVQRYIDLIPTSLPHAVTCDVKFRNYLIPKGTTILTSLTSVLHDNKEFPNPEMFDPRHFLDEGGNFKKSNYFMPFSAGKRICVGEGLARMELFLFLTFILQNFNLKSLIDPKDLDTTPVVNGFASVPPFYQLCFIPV

As to `CN1CCN(S(=O)(=O)c2cccc(C(=O)N(C)CC(=O)Nc3ccc(F)c(F)c3F)c2)CC1`, the IC50 in data set [1] was 3.94 µM (active); in data set [2] it was 5.4 µM (active).

As for `C=CCOc1ccc2c(c1)C(=NO)c1cc(OCC=C)ccc1-2`, the CC50 in data set [3] and in [4] was > 40 µM (active) each time.

Consider `O=C(Nc1ncc(Cc2cc(Cl)ccc2Cl)s1)c1ccc([N+](=O)[O-])cc1`, for which the EC50 in data set [5] was 1.31 µM (active); in [6], > 30 µM (not active). Also, the AC50 at Cytochrome P450 1A2 is 5.62 µM (inconclusive); at Cytochrome P450 2C9 it was “inconclusive”.

In the case of `Cc1ccc(Nc2nc(-c3c(C)nc4ncccn34)cs2)cc1`, the EC50 in the data set on BJ is 60.6 µM (active). Moreover, the IC50 in data set [7] is 36.5 µM (inactive). The AC50 is 0.0316 µM (inconclusive) on Cytochrome P450 2C19 and “inconclusive” at Cytochrome P450 2C9.

Consider `CCc1nc2cc(Cc3ccc4[nH]c(CC)nc4c3)ccc2[nH]1`, for which, in [4], the CC50 is 15.5 µM (active).

For `Cc1ccc(NC(=O)C(C)N2C(=O)c3ccccc3C2=O)cc1S(=O)(=O)N1CCOCC1` (centres undefined), the IC50 at Aminopeptidase N was 115 µM (active).

Turning to `O=C(N/N=C/C1CCCCC1)c1ccccn1`, the AC50 at Cytochrome P450 1A2 was 17.8 µM (inconclusive); at Cytochrome P450 2C9, “inconclusive”.

Consider `C[n+]1ccc(C(=O)Nc2ccccc2Cl)cc1`, for which the IC50 in data set [1] was 2.01 µM (active); in data set [2], 1.72 µM (active); in data set [8], 7.68 µM (active).
